Reference: patent US5260327A, “Methods for inhibiting the proliferation of brain and hepatic metastases by using lonidamine” (priority 1992, dated 1993)
Entries after “also recorded” stand apart in the source; their conditions may differ.

What was measured:
[1] = tested on: HeLa cells; test: Effect of gossypol on cell multiplication at 37° C.; assay type: cell-based, human
Protocol: (§1) Experiments were carried out with HeLa S-3 cells grown in Eagle's minimal essential medium supplemented with 10% fetal calf serum.
(§2) The pH of the culture medium was adjusted by varying the CO2 content of the gas phase within the flasks. The buffering system of Eagle's minimal essential medium consisted of 26 mM NaHCO3 at 5% CO2 for neutral pH of 7.4. To obtain a pH of 6.7, for example, the flasks were flushed with the gas mixtures containing 26% CO2. The pH of the culture medium was monitored throughout the treatment procedures by sealing a combination electrode in a treatment vessel and monitored with temperature-compensated digital pH meter.
(§3) Gossypol was dissolved in DMSO immediately prior to experiments. DMSO produced no enhancement of hyperthermic cytotoxicity with the range studied.
Preliminary experiments were carried out to determine the effect of gossypol on cell division. Exponentially growing HeLa cells were exposed to the drug for 72 hours at 37° C. Control cells grew exponentially with a doubling time of approximately 19 hours.

[2] = tested on: HeLa S-3 cells; test: Effect of gossypol on cell survival at elevated temperature, pH and glucose conditions; assay type: cell-based, human; conditions: for viability at 10 µg/mL: Homo sapiens, HeLa S3
Protocol: as §1
Plated monolayer cells were heated within 0.05° of the desired temperature by totally immersing plastic culture flasks in a heated water bath. Water bath temperatures were verified by a National Bureau of Standards thermometer.
as §2
(§4) The "glucose-deprived" medium was prepared by adding 10% dialyzed fetal calf serum to the culture medium without glucose. The dialyzed fetal calf serum contained less than 1 mg glucose per 100 ml so that the final concentration of glucose in the "glucose-deprived" medium was less than 0.001 mg per ml.
as §3
For example, at 10 μg/m. and 2 hours exposure at 42° C., the cells survival is reduced to 1% under acidic condition. Heat treatment alone reduces the cell survival to only 50% of the control.
Since gossypol has been reported to interfere with cellular energy metabolism, experiments were performed to determine the influence of glucose on the cytotoxic effect of gossypol. […] The survival of glucose-fed cells exposed to the same treatment was approximately 10% while that of glucose-deprived cells can further enhance the cytotoxic effect of gossypol at elevated temperature.

[3] = tested on: spermatogenesis; conditions: in vivo; cited from earlier work
[4] = tested on: testicular tissues; conditions: cited from earlier work
[5] = tested on: cultured tumor cell lines; conditions: cited from earlier work
[6] = tested on: glycolytic and mitochondrial bound enzymes; conditions: cited from earlier work
[7] = tested on: MCA mammary carcinoma; test: Radiation enhancement in the transplanted MCA mammary carcinoma, with or without mild hyperthermia; assay type: in vivo, murine
Protocol: Nicotinamide was administered intraperitoneal one (1) […] before irradiation. Localized mild hyperthermia (41° C.) was applied for one (1) hour immediately prior to irradiation.

[8] = tested on: Meth-A fibrosarcoma; test: Radiation enhancement by nicotinamide in Meth-A fibrosarcoma; assay type: in vivo, murine; conditions: radiosensitive tumor
Text: The mechanism by which nicotinamide produces radiation enhancement is not established.

[9] = tested on: cell culture models; test: Radiation enhancement by nicotinamide in cell culture; assay type: cell-based
Text: (22) See FIGS. 9 and 10. As noted previously, the following DMF's were obtained for the respective experimental conditions: Nicotinamide+Radiation Therapy=1.36, Hyperthermia+Radiation Therapy=1.36, Nicotinamide+Hyperthermia+Radiation Therapy=1.64.

[10] = tested on: C3H mammary adenocarcinoma; conditions: transplanted C3H mammary adenocarcinoma; cited from earlier work
[11] = tested on: EMT-6, Lewis Lung, and RIF-1 tumors; conditions: injection prior to radiation treatment; cited from earlier work
[12] = tested on: poly-ADP ribose synthetase; conditions: cited from earlier work
[13] = in vivo; cited from earlier work
[14] = Tolerability of nicotinamide in mice; conditions: optimal dose of 0.5 gm/kg (1.5 gm/m^2)
[15] = tested on: HeLa S-3 cells; test: cells; assay type: cell-based, human; conditions: for viability at 10 µg/mL: Homo sapiens, HeLa S3, 24 hours
Protocol: Experiments were carried out with HeLa S-3 cells grown in Eagle's minimal essential medium supplemented with 10% fetal calf serum. […] No antifungal agent was used.
Cell survival was assayed by colony-forming ability of plated single cells to obtain quantitative dose-survival curves. Details of cloning experiments including colony court have been described elsewhere (See, e.g., Kim et al. supra).
Plated a synchronous monolayer cells were heated to within 0.05° C. of the desired temperature by totally immersing plastic culture flasks in a water bath. Water bath temperatures were verified by a National Bureau of Standards calibrated thermometer.
The pH of the culture medium was adjusted by varying the CO2 content of the gas phase within the flasks. […] The pH of the culture medium was monitored throughout the treatment procedures by sealing a combination electrode in a treatment vessel and monitored with a temperature-compensated digital pH meter.
as §4

[16] = tested on: cells; conditions: high doses; cited from earlier work
[17] = human cancer cells (HeLa), heated
[18] = acidic pH, glucose-deprived cells

With `Cc1cc2c(C(C)C)c(O)c(O)c(C=O)c2c(O)c1-c1c(C)cc2c(C(C)C)c(O)c(O)c(C=O)c2c1O` [gossypol] the “growth rate versus control” value ([1]; 1.25 μg/ml) was “the same as that of the control cells”, the doubling time ([1]; 2.5 μg/ml, incubation times greater than 24 hours) was “a lengthening of doubling time was observed” and the “growth curve versus control” value ([1]; 2.5 μg/ml, initial 24 hours) was “not significantly different from the control”. The “cell growth (multiplication)” value ([1]; 5, 10 and 20 μg/ml, 72 hours) was “grew exponentially for the first 24 hour period and then remained stationary”, the “cytotoxicity, glucose deprivation at 37° C.” value ([2]; 10 μg/ml, glucose-deprived, 37° C., pH 7.4) was “no apparent cytotoxicity” and the “cell killing, glucose deprivation at 42° C.” value ([2]; 10 μg/ml, glucose-deprived, 42° C. for 4 hours, pH 7.4) was “a substantial increase in cell killing”. For the same molecule, the “drug toxicity (cell survival)” value ([2]; 5 and 10 μg/ml, up to 4 hours, 37° C., acidic or neutral conditions) was “no appreciable drug toxicity”, the viability at 10 µg/mL ([2]; 10 μg/ml, 2 hours exposure at 42° C., acidic condition (heat alone: 50% of control), read-out: cell survival) was 1% and the viability at 10 µg/mL ([2]; 10 μg/ml, glucose-fed, 42° C. for 4 hours, pH 7.4, read-out: survival of glucose-fed cells) was ~10%. The “pH dependence of cytotoxic effect of hyperthermia on drug-treated cells” value ([2]; elevated temperature, acidic vs neutral) was “most pronounced under acidic conditions”, the hyperthermic sensitization [2, 17] was “effective hyperthermic sensitizers of human cancer cells” and the inhibition of spermatogenesis [3] was “inhibitor of spermatogenesis”. For the same molecule, the “toxicity to testicular tissues” value ([4]; in vivo) was “selectively toxic to testicular tissues”, the “effect on other tissues” value ([4]; non-testicular tissues) was “no observable effect on other tissues” and the anti-tumor effects [5] was “anti-tumor effects against cultured tumor cell lines”. For the same molecule, the enzyme inhibition [6] was “inhibition of glycolytic and mitochondrial bound enzymes”.

For `NC(=O)c1cccnc1` [nicotinamide], the “radiation dose modification factor, nicotinamide + hyperthermia + radiation” value ([7]; 0.5 gm/kg 1 hour prior to radiation, 41° C. for one hour, b79 statement) was 1.77, the “DMF, Nicotinamide+Hyperthermia+Radiation Therapy” value ([7]; 125 to 500 mg/kg i.p. one hour prior to irradiation, 1 hour heating at 41° C., b86 statement) was 1.64 and the “DMF, Nicotinamide+Radiation Therapy” value ([7]; 125 to 500 mg/kg i.p. one hour prior to irradiation, b86 statement) was 1.36. For the same molecule, the “enhancement of effects of radiation and radiation plus hyperthermia” value ([7]; 125 to 500 mg/kg i.p., one hour prior to irradiation, 41° C. 1 hour) was “clear enhancement of the effects of radiation and radiation plus hyperthermia”, the “DMF, nicotinamide plus radiation (without hyperthermia)” value ([7]; without hyperthermia, b79 statement) was 1.35 and the “radiation enhancement in oxic Meth-A fibrosarcoma” value [8] was “inactive against the oxic Meth-A fibrosarcoma model; also recorded: no radio-enhancing effect”. For the same molecule, the “activity in cell culture models” value ([9]; in our hands) was “not active in cell culture models”, the “radiation enhancement in cell culture” value ([9]; nicotinamide concentrations <10 mM) was “No radiation enhancement” and the radiation enhancing effects [10] was “radiation enhancing effects”. For the same molecule, the “optimal timing of drug for radiation enhancement” value [11] was 1 to 3 h, the “inhibition of poly-ADP ribose synthetase” value [12] was “inhibitor of poly-ADP ribose synthetase” and the safety in humans [13] was “safe and associated with only a low incidence of side effects”. The toxicity in mice [14] was “non-toxic in mice”.

With `O=C(O)c1cccnc1` [nicotinic acid] the “radiation enhancement, MCA mammary tumor, nicotinic acid” value ([7]; even at the LD10 dosage) was “did not produce radiation enhancement”.

With `COC(=O)c1ccccc1-c1c2ccc(=N)cc-2oc2cc(N)ccc12` [rhodamine 123] the “cell surviving fraction, initial 4 hour exposure” value ([15]; 10 μg/ml, 4 hours, 37° C., glucose-fed or glucose-deprived) was “no appreciable reduction in the cell surviving fraction”, the “cell survival at 37° C., exposure limit” value ([15]; 37° C., 4 hour) was “did not produce any detectable reduction in cell survival” and the “effect on hyperthermic cytotoxicity, glucose-deprived vs glucose-fed cells” value ([15]; 40, 41 and 42° C., up to 4 hours) was “selectively increased the cytotoxic effects of hyperthermia in glucose-deprived cells relative to glucose-fed cells”. For the same molecule, the viability at 10 µg/mL ([15]; 10 μg/ml, 37° C., glucose-deprived, read-out: surviving fraction in the absence of glucose) was < 1%, the viability at 10 µg/mL ([15]; 10 μg/ml, 37° C., glucose-fed, read-out: surviving fraction in the presence of glucose) was 80% and the “cytotoxicity at acidic pH relative to pH 7.4” value [15, 18] was “less than that observed at pH 7.4”. The “influence of acidic pH on cytotoxicity of heat” value [15, 18] was “did not substantially enhance the cytotoxicity of heat in glucose-deprived cells”, the “dependence of potentiation of heat effects” value ([15]; glucose-deprived cells, two hours) was “dependent on the elevated temperature and drug concentration in glucose-deprived cells” and the “hyperthermia enhancement in glucose-fed cells” value ([15]; glucose-fed, different temperatures for two hours) was “No hyperthermia enhancement”. The hyperthermic sensitization [15, 17] was “effective hyperthermic sensitizers of human cancer cells” and the “effects of continuous exposure” value [16] was “inhibit oxidative phosphorylation, to arrest cells in G1 phase, and to induce loss of reproductive capacity”.
